Assay results published in ChEMBL document CHEMBL5500418, “Structure-Activity Study on Substituted, Core-Extended, and Dyad Naphthalene Diimide G-Quadruplex Ligands Leading to Potent Antitrypanosomal Agents” (J Med Chem, 2024).

System: not listed separately
Experiment: Cytotoxicity against human MRC5 cells incubated for 72 hrs by alamar blue staining based assay
Type: toxicity, cell-based
Settings: not given

Row | Compound | IC50 at 72 h [nM]
1 | O=C1c2cc(NCCOCCO)c3c4c(cc(NCCOCCO)c(c24)C(=O)N1CCOCCO)C(=O)N(CCOCCO)C3=O | > 100000
2 | CN(C)CCCN1C(=O)c2ccc3c4c(c(N5CCCCC5)cc(c24)C1=O)C(=O)N(CCCN(C)C)C3=O | 2600
3 | CN(C)CCCN1C(=O)c2ccc3c4c(c(NCCCCCCCNc5cc6c7c(ccc8c7c5C(=O)N(CCCN(C)C)C8=O)C(=O)N(CCCN(C)C)C6=O)cc(c24)C1=O)C(=O)N(CCCN(C)C)C3=O | 62
4 | COCCOCCNc1cc2c3c(ccc4c3c1C(=O)N(CCCN(C)C)C4=O)C(=O)N(CCCN(C)C)C2=O | 5000
5 | O=C1c2ccc3c4c(ccc(c24)C(=O)N1CCOCCO)C(=O)N(CCOCCO)C3=O | 14500
6 | CN(C)CCCN1C(=O)c2cc(NCCOCCOCCNc3cc4c5c(c(Br)cc6c5c3C(=O)N(CCCCCC(=O)O)C6=O)C(=O)N(CCCCCC(=O)O)C4=O)c3c4c(cc(Br)c(c24)C1=O)C(=O)N(CCCN(C)C)C3=O | 14000

System: Trypanosoma brucei
Experiment: Antitrypanosomal activity against bloodstream-stage Trypanosoma brucei measured after 72 hrs by alamar blue assay
Type: functional, organism-based
Settings: not given

Row | Compound | IC50 [nM]
7 | O=C1c2cc(NCCOCCO)c3c4c(cc(NCCOCCO)c(c24)C(=O)N1CCOCCO)C(=O)N(CCOCCO)C3=O | 42700
8 | CN(C)CCCN1C(=O)c2ccc3c4c(c(N5CCCCC5)cc(c24)C1=O)C(=O)N(CCCN(C)C)C3=O | 32
9 | CN(C)CCCN1C(=O)c2ccc3c4c(c(NCCCCCCCNc5cc6c7c(ccc8c7c5C(=O)N(CCCN(C)C)C8=O)C(=O)N(CCCN(C)C)C6=O)cc(c24)C1=O)C(=O)N(CCCN(C)C)C3=O | 15
10 | COCCOCCNc1cc2c3c(ccc4c3c1C(=O)N(CCCN(C)C)C4=O)C(=O)N(CCCN(C)C)C2=O | 61
11 | O=C1c2ccc3c4c(ccc(c24)C(=O)N1CCOCCO)C(=O)N(CCOCCO)C3=O | 2500
12 | CN(C)CCCN1C(=O)c2cc(NCCOCCOCCNc3cc4c5c(c(Br)cc6c5c3C(=O)N(CCCCCC(=O)O)C6=O)C(=O)N(CCCCCC(=O)O)C4=O)c3c4c(cc(Br)c(c24)C1=O)C(=O)N(CCCN(C)C)C3=O | 550

System: Leishmania major
Experiment: Antileishmanial activity against Leishmania major promastigotes MHOM/IL/80/Friedlin measured after 72 hrs by MTT assay
Type: functional, organism-based
Settings: not given

Row | Compound | IC50 [nM]
13 | O=C1c2cc(NCCOCCO)c3c4c(cc(NCCOCCO)c(c24)C(=O)N1CCOCCO)C(=O)N(CCOCCO)C3=O | > 100000
14 | CN(C)CCCN1C(=O)c2ccc3c4c(c(N5CCCCC5)cc(c24)C1=O)C(=O)N(CCCN(C)C)C3=O | 170
15 | CN(C)CCCN1C(=O)c2ccc3c4c(c(NCCCCCCCNc5cc6c7c(ccc8c7c5C(=O)N(CCCN(C)C)C8=O)C(=O)N(CCCN(C)C)C6=O)cc(c24)C1=O)C(=O)N(CCCN(C)C)C3=O | 2590
16 | COCCOCCNc1cc2c3c(ccc4c3c1C(=O)N(CCCN(C)C)C4=O)C(=O)N(CCCN(C)C)C2=O | 4420
17 | O=C1c2ccc3c4c(ccc(c24)C(=O)N1CCOCCO)C(=O)N(CCOCCO)C3=O | 3760
18 | CN(C)CCCN1C(=O)c2cc(NCCOCCOCCNc3cc4c5c(c(Br)cc6c5c3C(=O)N(CCCCCC(=O)O)C6=O)C(=O)N(CCCCCC(=O)O)C4=O)c3c4c(cc(Br)c(c24)C1=O)C(=O)N(CCCN(C)C)C3=O | > 100000

System: not listed separately
Experiment: Selectivity index, ratio of IC50 for human MRC5 to IC50 for Trypanosoma brucei measured after 72 hrs by alamar blue assay
Type: toxicity
Settings: MRC5 cells, read-out: Ratio IC50

Row | Compound | selectivity ratio at 72 h
19 | CN(C)CCCN1C(=O)c2ccc3c4c(c(NCc5cn([C@@H]6O[C@H](CO)[C@@H](O)[C@H](O)[C@H]6O)nn5)cc(c24)C1=O)C(=O)N(CCCN(C)C)C3=O | 47.9
20 | CCCNc1cc2c3c(ccc4c3c1C(=O)N(CCCN(C)C)C4=O)C(=O)N(CCCN(C)C)C2=O | 40
21 | CN(C)CCCN1C(=O)c2ccc3c4c(c(NCc5cn(CCO[C@@H]6O[C@H](CO)[C@@H](O)[C@H](O)[C@H]6O)nn5)cc(c24)C1=O)C(=O)N(CCCN(C)C)C3=O | 41.8
22 | O=C1c2cc(NCCOCCO)c3c4c(cc(NCCOCCO)c(c24)C(=O)N1CCOCCO)C(=O)N(CCOCCO)C3=O | > 2.3
23 | CN(C)CCCN1C(=O)c2ccc3c4c(c(N5CCCCC5)cc(c24)C1=O)C(=O)N(CCCN(C)C)C3=O | 81.3
24 | CN(C)CCCN1C(=O)c2ccc3c4c(c(NCCCCCCCNc5cc6c7c(ccc8c7c5C(=O)N(CCCN(C)C)C8=O)C(=O)N(CCCN(C)C)C6=O)cc(c24)C1=O)C(=O)N(CCCN(C)C)C3=O | 4
25 | COCCOCCNc1cc2c3c(ccc4c3c1C(=O)N(CCCN(C)C)C4=O)C(=O)N(CCCN(C)C)C2=O | 80.6
26 | O=C1c2ccc3c4c(ccc(c24)C(=O)N1CCOCCO)C(=O)N(CCOCCO)C3=O | 5.8
27 | CN(C)CCCN1C(=O)c2cc(NCCOCCOCCNc3cc4c5c(c(Br)cc6c5c3C(=O)N(CCCCCC(=O)O)C6=O)C(=O)N(CCCCCC(=O)O)C4=O)c3c4c(cc(Br)c(c24)C1=O)C(=O)N(CCCN(C)C)C3=O | 25

System: not listed separately
Experiment: Selectivity index, ratio of IC50 for human MRC5 to IC50 for Leishmania major measured after 72 hrs by MTT assay
Type: toxicity
Settings: MRC5 cells, read-out: Ratio IC50

Row | Compound | selectivity ratio at 72 h
28 | CN(C)CCCN1C(=O)c2ccc3c4c(c(NCc5cn([C@@H]6O[C@H](CO)[C@@H](O)[C@H](O)[C@H]6O)nn5)cc(c24)C1=O)C(=O)N(CCCN(C)C)C3=O | 4.7
29 | CCCNc1cc2c3c(ccc4c3c1C(=O)N(CCCN(C)C)C4=O)C(=O)N(CCCN(C)C)C2=O | 10.6
30 | CN(C)CCCN1C(=O)c2ccc3c4c(c(NCc5cn(CCO[C@@H]6O[C@H](CO)[C@@H](O)[C@H](O)[C@H]6O)nn5)cc(c24)C1=O)C(=O)N(CCCN(C)C)C3=O | 1.3
31 | CN(C)CCCN1C(=O)c2ccc3c4c(c(N5CCCCC5)cc(c24)C1=O)C(=O)N(CCCN(C)C)C3=O | 15.3
32 | CN(C)CCCN1C(=O)c2ccc3c4c(c(NCCCCCCCNc5cc6c7c(ccc8c7c5C(=O)N(CCCN(C)C)C8=O)C(=O)N(CCCN(C)C)C6=O)cc(c24)C1=O)C(=O)N(CCCN(C)C)C3=O | 0.002
33 | COCCOCCNc1cc2c3c(ccc4c3c1C(=O)N(CCCN(C)C)C4=O)C(=O)N(CCCN(C)C)C2=O | 1.1
34 | O=C1c2ccc3c4c(ccc(c24)C(=O)N1CCOCCO)C(=O)N(CCOCCO)C3=O | 3.85
35 | CN(C)CCCN1C(=O)c2cc(NCCOCCOCCNc3cc4c5c(c(Br)cc6c5c3C(=O)N(CCCCCC(=O)O)C6=O)C(=O)N(CCCCCC(=O)O)C4=O)c3c4c(cc(Br)c(c24)C1=O)C(=O)N(CCCN(C)C)C3=O | < 0.14

System: Trypanosoma brucei
Experiment: Antitrypanosomal activity against Trypanosoma brucei
Type: functional, organism-based
Settings: not given

Row | Compound | IC50 [nM]
36 | N=C(N)c1ccc(OCCCCCOc2ccc(C(=N)N)cc2)cc1 [PENTAMIDINE] | 0.2

System: Quadruplex DNA
Experiment: Stabilization of 22AG G4 DNA (unknown origin) assessed as change in melting temperature at 1 uM by FRET assay
Type: nucleic-acid assay
Settings: not given

Row | Compound | ΔTm [°C]
37 | CN(C)CCCN1C(=O)c2ccc3c4c(c(NCc5cn([C@@H]6O[C@H](CO)[C@@H](O)[C@H](O)[C@H]6O)nn5)cc(c24)C1=O)C(=O)N(CCCN(C)C)C3=O | 10
38 | CCCNc1cc2c3c(ccc4c3c1C(=O)N(CCCN(C)C)C4=O)C(=O)N(CCCN(C)C)C2=O | > 30
39 | CN(C)CCCN1C(=O)c2ccc3c4c(c(NCc5cn(CCO[C@@H]6O[C@H](CO)[C@@H](O)[C@H](O)[C@H]6O)nn5)cc(c24)C1=O)C(=O)N(CCCN(C)C)C3=O | 2.7
40 | O=C1c2cc(NCCOCCO)c3c4c(cc(NCCOCCO)c(c24)C(=O)N1CCOCCO)C(=O)N(CCOCCO)C3=O | 0.3
41 | CN(C)CCCN1C(=O)c2ccc3c4c(c(N5CCCCC5)cc(c24)C1=O)C(=O)N(CCCN(C)C)C3=O | 2.3
42 | CN(C)CCCN1C(=O)c2ccc3c4c(c(NCCCCCCCNc5cc6c7c(ccc8c7c5C(=O)N(CCCN(C)C)C8=O)C(=O)N(CCCN(C)C)C6=O)cc(c24)C1=O)C(=O)N(CCCN(C)C)C3=O | > 30
43 | COCCOCCNc1cc2c3c(ccc4c3c1C(=O)N(CCCN(C)C)C4=O)C(=O)N(CCCN(C)C)C2=O | 4.4
44 | O=C1c2ccc3c4c(ccc(c24)C(=O)N1CCOCCO)C(=O)N(CCOCCO)C3=O | -2.2
45 | CN(C)CCCN1C(=O)c2cc(NCCOCCOCCNc3cc4c5c(c(Br)cc6c5c3C(=O)N(CCCCCC(=O)O)C6=O)C(=O)N(CCCCCC(=O)O)C4=O)c3c4c(cc(Br)c(c24)C1=O)C(=O)N(CCCN(C)C)C3=O | 3.8

System: Quadruplex DNA
Experiment: Stabilization of Trypanosoma brucei ERB1 G4 DNA assessed as change in melting temperature at 1 uM by FRET assay
Type: nucleic-acid assay
Settings: not given

Row | Compound | ΔTm [°C]
46 | CN(C)CCCN1C(=O)c2ccc3c4c(c(NCc5cn([C@@H]6O[C@H](CO)[C@@H](O)[C@H](O)[C@H]6O)nn5)cc(c24)C1=O)C(=O)N(CCCN(C)C)C3=O | 11
47 | CCCNc1cc2c3c(ccc4c3c1C(=O)N(CCCN(C)C)C4=O)C(=O)N(CCCN(C)C)C2=O | 12
48 | CN(C)CCCN1C(=O)c2ccc3c4c(c(NCc5cn(CCO[C@@H]6O[C@H](CO)[C@@H](O)[C@H](O)[C@H]6O)nn5)cc(c24)C1=O)C(=O)N(CCCN(C)C)C3=O | 8.6
49 | O=C1c2cc(NCCOCCO)c3c4c(cc(NCCOCCO)c(c24)C(=O)N1CCOCCO)C(=O)N(CCOCCO)C3=O | 3.5
50 | CN(C)CCCN1C(=O)c2ccc3c4c(c(N5CCCCC5)cc(c24)C1=O)C(=O)N(CCCN(C)C)C3=O | 7.4
51 | CN(C)CCCN1C(=O)c2ccc3c4c(c(NCCCCCCCNc5cc6c7c(ccc8c7c5C(=O)N(CCCN(C)C)C8=O)C(=O)N(CCCN(C)C)C6=O)cc(c24)C1=O)C(=O)N(CCCN(C)C)C3=O | 15
52 | COCCOCCNc1cc2c3c(ccc4c3c1C(=O)N(CCCN(C)C)C4=O)C(=O)N(CCCN(C)C)C2=O | 9.7
53 | O=C1c2ccc3c4c(ccc(c24)C(=O)N1CCOCCO)C(=O)N(CCOCCO)C3=O | 1.3
54 | CN(C)CCCN1C(=O)c2cc(NCCOCCOCCNc3cc4c5c(c(Br)cc6c5c3C(=O)N(CCCCCC(=O)O)C6=O)C(=O)N(CCCCCC(=O)O)C4=O)c3c4c(cc(Br)c(c24)C1=O)C(=O)N(CCCN(C)C)C3=O | 7.1

System: Quadruplex DNA
Experiment: Stabilization of 22AG G4 DNA (unknown origin) assessed as change in melting temperature at 265 nm wavelength at 5 uM by CD spectroscopy
Type: nucleic-acid assay
Settings: not given

Row | Compound | ΔTm [°C]
55 | CN(C)CCCN1C(=O)c2cc(NCCOCCOCCNc3cc4c5c(c(Br)cc6c5c3C(=O)N(CCCCCC(=O)O)C6=O)C(=O)N(CCCCCC(=O)O)C4=O)c3c4c(cc(Br)c(c24)C1=O)C(=O)N(CCCN(C)C)C3=O | 4.9

System: Quadruplex DNA
Experiment: Stabilization of 22AG G4 DNA (unknown origin) assessed as change in melting temperature at 292 nm wavelength at 5 uM by CD spectroscopy
Type: nucleic-acid assay
Settings: not given

Row | Compound | ΔTm [°C]
56 | CN(C)CCCN1C(=O)c2cc(NCCOCCOCCNc3cc4c5c(c(Br)cc6c5c3C(=O)N(CCCCCC(=O)O)C6=O)C(=O)N(CCCCCC(=O)O)C4=O)c3c4c(cc(Br)c(c24)C1=O)C(=O)N(CCCN(C)C)C3=O | -2.5

System: Quadruplex DNA
Experiment: Stabilization of Trypanosoma brucei ERB1 G4 DNA assessed as change in melting temperature at 265 nm wavelength at 5 uM by CD spectroscopy
Type: nucleic-acid assay
Settings: not given

Row | Compound | ΔTm [°C]
57 | CN(C)CCCN1C(=O)c2cc(NCCOCCOCCNc3cc4c5c(c(Br)cc6c5c3C(=O)N(CCCCCC(=O)O)C6=O)C(=O)N(CCCCCC(=O)O)C4=O)c3c4c(cc(Br)c(c24)C1=O)C(=O)N(CCCN(C)C)C3=O | 5.2

System: Quadruplex DNA
Experiment: Stabilization of Trypanosoma brucei ERB1 G4 DNA assessed as change in melting temperature at 292 nm wavelength at 5 uM by CD spectroscopy
Type: nucleic-acid assay
Settings: not given

Row | Compound | ΔTm [°C]
58 | CN(C)CCCN1C(=O)c2cc(NCCOCCOCCNc3cc4c5c(c(Br)cc6c5c3C(=O)N(CCCCCC(=O)O)C6=O)C(=O)N(CCCCCC(=O)O)C4=O)c3c4c(cc(Br)c(c24)C1=O)C(=O)N(CCCN(C)C)C3=O | 3.2
